Source: patent publication US20120296067A1, “COMPOUND CAPABLE OF BINDING TO NATURALLY OCCURRING DENATURED PROTEIN, AND METHOD FOR SCREENING FOR THE COMPOUND” (Prism BioLab Co., Ltd., priority 2010, published 2012)
“Also recorded” adds a separate entry of the source.

How the values were obtained:
[1] = target: T1, CBP (1-111) (disordered sequence region) (Homo sapiens, UniProt Q92793); experiment: 2D NMR analysis of 15N-labeled CBP (1-111) with ICG-001; format: binding; conditions: 5 μM or 15 μM ICG-001
T1 construct: NMR analysis using CBP (1-111) expressed in E. coli as a sample; made in house; host or cells: E. coli
T1 sequence (Q92793 1-111): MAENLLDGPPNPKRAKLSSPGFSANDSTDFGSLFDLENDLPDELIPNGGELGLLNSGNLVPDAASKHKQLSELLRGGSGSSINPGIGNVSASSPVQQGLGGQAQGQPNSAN
Method: ^15N-labeled CBP (1^-111) (disordered sequence region) was expressed E. coli and dissolved in a buffer (NaP 25 mM·pH 6.8, NaCl 50 mM, 0.02% NaN3), and 300 μl thereof was introduced into an NMR sample tube. Moreover, a D2O solution of ICG-001 was added so as to attain an ICG^-001 concentration of 5 μM or 15 μM. Solutions prepared in this manner as NMR samples were subjected to an NMR analysis. In the NMR analysis, the measurement and analysis was carried out to give a 2D spectrum, with the X axis indicating […] data and the Y axis indicating N-15 data.

[2] = target: T2, CBP (1-111) (disordered sequence region) and β-catenin (Homo sapiens, UniProt Q92793); conditions: cited from earlier work
T2 construct: made in house; host or cells: E. coli
T2 sequence (Q92793 1-111): as above

[3] = target: T3, p300 (1-111) (disordered sequence region) (Homo sapiens, UniProt Q09472); conditions: p300 (1-111) expressed in E. coli; cited from earlier work
T3 construct: made in house; host or cells: E. coli
T3 sequence (Q09472 1-111): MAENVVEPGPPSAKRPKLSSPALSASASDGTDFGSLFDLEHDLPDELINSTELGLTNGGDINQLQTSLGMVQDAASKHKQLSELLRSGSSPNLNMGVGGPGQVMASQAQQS

[4] = target: T4, CBP (Homo sapiens, UniProt Q92793); conditions: SW480 nuclear extract; FIG. 1; cited from earlier work
T4 construct: endogenous in cells; host or cells: SW480 nuclear extract
T4 sequence (Q92793 whole entry): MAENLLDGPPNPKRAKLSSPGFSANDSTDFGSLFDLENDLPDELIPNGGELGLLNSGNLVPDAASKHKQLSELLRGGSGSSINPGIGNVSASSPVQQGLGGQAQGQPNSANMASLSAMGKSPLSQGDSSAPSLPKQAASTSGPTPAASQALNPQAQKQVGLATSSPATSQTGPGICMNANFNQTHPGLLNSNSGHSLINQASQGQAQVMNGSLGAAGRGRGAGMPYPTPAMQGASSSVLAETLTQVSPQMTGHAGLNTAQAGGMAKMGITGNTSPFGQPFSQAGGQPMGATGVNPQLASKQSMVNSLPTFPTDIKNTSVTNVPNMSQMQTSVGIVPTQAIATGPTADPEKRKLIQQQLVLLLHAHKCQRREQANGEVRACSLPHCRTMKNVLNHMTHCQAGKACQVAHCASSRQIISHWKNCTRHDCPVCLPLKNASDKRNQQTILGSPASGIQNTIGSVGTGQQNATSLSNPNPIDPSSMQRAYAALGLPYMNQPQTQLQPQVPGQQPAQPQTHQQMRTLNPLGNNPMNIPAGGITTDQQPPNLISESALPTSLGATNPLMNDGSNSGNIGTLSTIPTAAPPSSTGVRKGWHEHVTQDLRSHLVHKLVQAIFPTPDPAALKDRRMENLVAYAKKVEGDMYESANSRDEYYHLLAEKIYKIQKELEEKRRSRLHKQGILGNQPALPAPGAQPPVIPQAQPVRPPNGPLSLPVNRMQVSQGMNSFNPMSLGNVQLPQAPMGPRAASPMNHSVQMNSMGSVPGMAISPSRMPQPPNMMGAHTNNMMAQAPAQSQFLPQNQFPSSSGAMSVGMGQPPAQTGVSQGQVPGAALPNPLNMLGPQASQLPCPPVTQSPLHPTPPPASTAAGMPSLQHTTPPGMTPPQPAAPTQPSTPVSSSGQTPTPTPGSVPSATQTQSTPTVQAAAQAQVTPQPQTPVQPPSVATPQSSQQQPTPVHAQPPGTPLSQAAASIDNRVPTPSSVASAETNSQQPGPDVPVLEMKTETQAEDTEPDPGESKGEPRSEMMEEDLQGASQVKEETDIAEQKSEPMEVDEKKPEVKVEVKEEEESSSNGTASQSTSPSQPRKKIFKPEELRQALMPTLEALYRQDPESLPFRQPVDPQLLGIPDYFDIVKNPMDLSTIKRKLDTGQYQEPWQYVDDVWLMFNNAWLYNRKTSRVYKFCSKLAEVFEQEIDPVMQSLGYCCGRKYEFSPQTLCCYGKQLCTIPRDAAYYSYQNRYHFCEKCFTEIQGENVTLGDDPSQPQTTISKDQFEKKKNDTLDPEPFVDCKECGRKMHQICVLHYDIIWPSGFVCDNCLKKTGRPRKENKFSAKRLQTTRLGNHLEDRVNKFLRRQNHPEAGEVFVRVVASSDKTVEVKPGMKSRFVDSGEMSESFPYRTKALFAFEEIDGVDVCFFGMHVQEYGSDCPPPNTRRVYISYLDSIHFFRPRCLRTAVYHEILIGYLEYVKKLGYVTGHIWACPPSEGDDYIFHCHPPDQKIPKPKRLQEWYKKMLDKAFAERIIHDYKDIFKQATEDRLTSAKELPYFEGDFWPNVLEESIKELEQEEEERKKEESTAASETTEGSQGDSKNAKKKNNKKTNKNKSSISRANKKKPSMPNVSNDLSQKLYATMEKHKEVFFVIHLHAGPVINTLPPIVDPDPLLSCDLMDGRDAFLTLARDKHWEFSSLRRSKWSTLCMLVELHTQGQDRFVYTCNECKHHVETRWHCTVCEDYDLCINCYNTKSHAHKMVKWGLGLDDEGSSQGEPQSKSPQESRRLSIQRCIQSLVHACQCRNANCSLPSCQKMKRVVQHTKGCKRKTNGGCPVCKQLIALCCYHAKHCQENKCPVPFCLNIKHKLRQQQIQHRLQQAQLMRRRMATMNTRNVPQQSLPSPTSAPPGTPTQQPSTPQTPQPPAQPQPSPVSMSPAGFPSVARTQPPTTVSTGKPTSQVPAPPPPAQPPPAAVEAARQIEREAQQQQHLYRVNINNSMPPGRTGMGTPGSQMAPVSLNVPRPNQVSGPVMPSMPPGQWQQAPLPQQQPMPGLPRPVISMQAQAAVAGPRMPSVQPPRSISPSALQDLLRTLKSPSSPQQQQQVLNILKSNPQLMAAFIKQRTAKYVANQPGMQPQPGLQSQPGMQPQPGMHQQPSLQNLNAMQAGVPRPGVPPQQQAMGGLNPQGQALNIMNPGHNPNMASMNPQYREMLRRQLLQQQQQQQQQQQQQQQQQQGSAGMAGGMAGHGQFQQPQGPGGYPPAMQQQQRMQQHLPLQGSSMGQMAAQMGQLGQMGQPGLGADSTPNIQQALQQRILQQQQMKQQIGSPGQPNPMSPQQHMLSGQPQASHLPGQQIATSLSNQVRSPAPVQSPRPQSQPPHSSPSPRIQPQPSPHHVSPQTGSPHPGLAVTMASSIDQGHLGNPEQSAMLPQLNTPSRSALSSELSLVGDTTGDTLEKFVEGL

interaction between CBP1-111 and compound (NMR) [1]: clear interaction
change of NMR peak of CBP1-111 on addition of compound ([1]; buffer pH 6.8, FIGS. 5 and 6): change of a peak
Structure (SMILES): O=C1[C@H](Cc2ccc(O)cc2)N2C(=O)CCN(C(=O)NCc3ccccc3)[C@H]2CN1Cc1cccc2ccccc12 [ICG-001]
separation of CBP (1-111) from β-catenin on addition of compound ([2]; CBP (1-111) and β-catenin expressed in E. coli, pulled down by immunoprecipitation): CBP (1-111) became separated
binding to the N-terminus of CBP ([2]; CBP (1-111), FIG. 2): binds to the N-terminus sequence of CBP; also recorded: bound to the N-terminus of CBP
binding to p300 [3]: does not binds to p300; also recorded: did not bind; also recorded: does not occur
binding to CBP (pull-down) [4]: binds to CBP; also recorded: bound to CBR
